In US10660876B2, “Amino compounds for treatment of medical disorders” (Achillion Pharmaceuticals, Inc., priority 2015, dated 2020):

Target: Human Factor D (Homo sapiens (Human), UniProt P00746)
Assay: Human Factor D Assay
Assay type: biochemical
Details: Table 1; Factor D purified from human serum, 80 nM, substrate Z-L-Lys-SBzl; read-out: IC50
Procedure, shortened: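 Serum-purified human Factor D (80 nM final) preincubated with compound for 5 min at room temperature in 50 mM Tris, 1 M NaCl, pH 7.5. Z-L-Lys-SBzl and DTNB added at 100 μM each; A405 read every 30 s for 30 min. IC50 by nonlinear regression of reaction rates.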

Human Factor D, sequence (P00746 26-253): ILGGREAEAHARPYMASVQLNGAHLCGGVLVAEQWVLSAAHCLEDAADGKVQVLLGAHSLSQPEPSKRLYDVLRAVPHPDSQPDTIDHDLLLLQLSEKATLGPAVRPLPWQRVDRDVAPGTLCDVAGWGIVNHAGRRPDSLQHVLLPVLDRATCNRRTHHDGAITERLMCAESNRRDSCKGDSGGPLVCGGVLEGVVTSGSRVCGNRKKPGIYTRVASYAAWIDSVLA

Row | Structure (SMILES) | IC50 [nM]
1 | CC(=O)c1cn(CC(=O)N2C[C@H](F)C[C@H]2C(=O)Nc2nc(-c3cccc(Cl)c3)ns2)c2ccc(Nc3cncnc3)cc12 [Compound 60, (2S,4R)-1-(2-(3-acetyl-5-(pyrimidin-5-ylamino)-1H-indol-1-yl)acetyl)-N-(3-(3-chlorophenyl)-1,2,4-thiadiazol-5-yl)-4-fluoropyrrolidine-2-carboxamide] | > 10000
2 | CC(=O)c1cn(CC(=O)N2C[C@H](F)C[C@H]2C(=O)NC2CCCN(c3cc(C)ccc3F)C2=O)c2ccc(Nc3cncnc3)cc12 (stereo partly drawn) [Compound 63, (2S,4R)-1-(2-(3-acetyl-5-(pyrimidin-5-ylamino)-1H-indol-1-yl)acetyl)-4-fluoro-N-(1-(2-fluoro-5-methylphenyl)-2-oxopiperidin-3-yl)pyrrolidine-2-carboxamide] | < 1000
3 | CC(=O)c1cn(CC(=O)N2C[C@H](F)C[C@H]2C(=O)Nc2cccc3c2OC(C)(C)C3)c2ccc(Nc3cncnc3)cc12 [Compound 24, (2S,4R)-1-(2-(3-acetyl-5-(pyrimidin-5-ylamino)-1H-indol-1-yl)acetyl)-N-(2,2-dimethyl-2,3-dihydrobenzofuran-7-yl)-4-fluoropyrrolidine-2-carboxamide] | < 1000
4 | NC(=O)c1nn(CC(=O)N2C[C@H](F)C[C@H]2C(=O)Nc2cccc(Cl)n2)c2ccc(Nc3cncnc3)cc12 [Compound 12, 1-(2-((2S,4R)-2-(6-chloropyridin-2-ylcarbamoyl)-4-fluoropyrrolidin-1-yl)-2-oxoethyl)-5-(pyrimidin-5-ylamino)-1H-indazole-3-carboxamide] | < 1000
5 | CC(=O)c1cn(CC(=O)N2C[C@H](F)C[C@H]2C(=O)Nc2cccc(O)n2)c2ccc(Nc3cncnc3)cc12 [Compound 68, (2S,4R)-1-(2-(3-acetyl-5-(pyrimidin-5-ylamino)-1H-indol-1-yl)acetyl)-4-fluoro-N-(6-hydroxypyridin-2-yl)pyrrolidine-2-carboxamide] | < 1000
6 | CC(=O)c1cn(CC(=O)N2C[C@H](F)C[C@H]2C(=O)Nc2ccc(F)c(-c3nnc4n3CCCCC4)c2)c2ccc(Nc3cncnc3)cc12 [Compound 26, (2S,4R)-1-(2-(3-acetyl-5-(pyrimidin-5-ylamino)-1H-indol-1-yl)acetyl)-4-fluoro-N-(4-fluoro-3-(6,7,8,9-tetrahydro-5H-[1,2,4]triazolo[4,3-a]azepin-3-yl)phenyl) pyrrolidine-2-carboxamide] | < 1000
7 | NC(=O)c1nn(CC(=O)N2C[C@H](F)C[C@H]2C(=O)Nc2cccc(-c3ccccc3Cl)c2F)c2ccc(Nc3cncnc3)cc12 [Compound 10, 1-(2-((2S,4R)-2-(2′-chloro-2-fluorobiphenyl-3-ylcarbamoyl)-4-fluoropyrrolidin-1-yl)-2-oxoethyl)-5-(pyrimidin-5-ylamino)-1H-indazole-3-carboxamide] | < 1000
8 | CC(=O)c1cn(CC(=O)N2C[C@H](F)C[C@H]2C(=O)Nc2noc(-c3ccccc3Cl)n2)c2ccc(Nc3cncnc3)cc12 [Compound 62, (2S,4R)-1-(2-(3-acetyl-5-(pyrimidin-5-ylamino)-1H-indol-1-yl)acetyl)-N-(5-(2-chlorophenyl)-1,2,4-oxadiazol-3-yl)-4-fluoropyrrolidine-2-carboxamide] | < 1000

Same assay, conditions: Table 3; Factor D purified from human serum, 80 nM, substrate Z-L-Lys-SBzl; read-out: IC50 (Stars)

Row | Structure (SMILES) | IC50 [nM]
9 | CC(=O)c1cn(CC(=O)N2C[C@H](F)C[C@H]2C(=O)NCCc2ccccc2)c2ccc(Nc3cccnc3)cc12 [Compound 148, (2S,4R)-1-(2-(3-acetyl-5-(pyridin-3-ylamino)-1H-indol-1-yl)acetyl)-4-fluoro-N-phenethylpyrrolidin-2-carboxamide] | < 1000
10 | CC(=O)c1cn(CC(=O)N2CC[C@H]2C(=O)Nc2cccc(C)n2)c2ccc(Nc3cncnc3)cc12 [Compound 160, (S)-1-(2-(3-acetyl-5-(pyrimidin-5-ylamino)-1H-indol-1-yl)acetyl)-N-(6-methylpyridin-2-yl)azetidine-2-carboxamide] | > 10000
